Reference: ChEMBL document CHEMBL4823288, “Discovery and Optimization of a Series of Benzofuran Selective ERAP1 Inhibitors: Biochemical and In Silico Studies” (ACS Med Chem Lett, 2021)

Legend:
[1] = biological target: T1, Endoplasmic reticulum aminopeptidase 1 (Homo sapiens, UniProt Q9NZ08)
Description: Inhibition of wild type ERAP1 (unknown origin) using L-Rho-Succ-FKARKF as substrate preincubated for 15 mins followed by substrate addition and measured after 20 mins by flourescence assay

Aminopeptidase N = Aminopeptidase N (Homo sapiens, UniProt P15144); test: Inhibition of APN (unknown origin) using Ala-AMC as substrate
[2] = biological target: Endoplasmic reticulum aminopeptidase 2 (Homo sapiens, UniProt Q6P179); test: Inhibition of ERAP2 (unknown origin) using Arg-AMC as substrate
Sequence of Endoplasmic reticulum aminopeptidase 2 (Q6P179 whole entry): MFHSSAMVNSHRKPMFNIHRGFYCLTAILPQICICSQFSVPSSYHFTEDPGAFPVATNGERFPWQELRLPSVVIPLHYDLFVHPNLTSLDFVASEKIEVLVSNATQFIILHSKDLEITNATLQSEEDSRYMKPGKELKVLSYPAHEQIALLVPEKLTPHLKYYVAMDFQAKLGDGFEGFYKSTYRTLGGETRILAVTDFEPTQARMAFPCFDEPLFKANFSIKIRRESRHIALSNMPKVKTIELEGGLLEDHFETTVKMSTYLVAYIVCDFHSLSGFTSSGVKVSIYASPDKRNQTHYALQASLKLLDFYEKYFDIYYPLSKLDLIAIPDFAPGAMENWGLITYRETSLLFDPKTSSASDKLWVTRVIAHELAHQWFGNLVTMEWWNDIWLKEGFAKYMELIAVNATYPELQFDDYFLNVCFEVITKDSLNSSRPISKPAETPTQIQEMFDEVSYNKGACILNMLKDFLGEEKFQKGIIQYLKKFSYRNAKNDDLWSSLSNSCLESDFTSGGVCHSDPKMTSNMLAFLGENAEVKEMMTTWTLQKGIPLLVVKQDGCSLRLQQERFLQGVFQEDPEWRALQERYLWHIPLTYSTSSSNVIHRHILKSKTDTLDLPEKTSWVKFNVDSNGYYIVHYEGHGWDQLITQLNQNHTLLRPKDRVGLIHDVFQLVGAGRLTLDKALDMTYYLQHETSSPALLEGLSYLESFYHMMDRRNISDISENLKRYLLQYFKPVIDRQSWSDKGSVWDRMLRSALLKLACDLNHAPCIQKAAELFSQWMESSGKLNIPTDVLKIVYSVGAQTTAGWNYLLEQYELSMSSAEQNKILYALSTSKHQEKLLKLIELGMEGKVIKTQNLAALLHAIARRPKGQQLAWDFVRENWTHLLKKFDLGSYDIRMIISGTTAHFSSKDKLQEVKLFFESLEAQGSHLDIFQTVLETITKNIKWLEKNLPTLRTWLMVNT

[3] = biological target: T1, Endoplasmic reticulum aminopeptidase 1; test: Inhibition of ERAP1 (unknown origin) using L-Rho-(D)-Q as substrate
[4] = biological target: T1, Endoplasmic reticulum aminopeptidase 1; test: Inhibition of ERAP1 (unknown origin) using L-Rho-Succ-FKARKF as substrate
[5] = biological target: T1, Endoplasmic reticulum aminopeptidase 1; test: Inhibition of ERAP1 (unknown origin) using L-Rho-Succ-AFKARKF as substrate
Cytochrome P450 3A4 [6] = biological target: T2, Cytochrome P450 3A4 (Homo sapiens, UniProt P08684); test: Inhibition of CYP3A4 (unknown origin) using midazolam as substrate; type: ADME
T2 sequence (P08684 whole entry): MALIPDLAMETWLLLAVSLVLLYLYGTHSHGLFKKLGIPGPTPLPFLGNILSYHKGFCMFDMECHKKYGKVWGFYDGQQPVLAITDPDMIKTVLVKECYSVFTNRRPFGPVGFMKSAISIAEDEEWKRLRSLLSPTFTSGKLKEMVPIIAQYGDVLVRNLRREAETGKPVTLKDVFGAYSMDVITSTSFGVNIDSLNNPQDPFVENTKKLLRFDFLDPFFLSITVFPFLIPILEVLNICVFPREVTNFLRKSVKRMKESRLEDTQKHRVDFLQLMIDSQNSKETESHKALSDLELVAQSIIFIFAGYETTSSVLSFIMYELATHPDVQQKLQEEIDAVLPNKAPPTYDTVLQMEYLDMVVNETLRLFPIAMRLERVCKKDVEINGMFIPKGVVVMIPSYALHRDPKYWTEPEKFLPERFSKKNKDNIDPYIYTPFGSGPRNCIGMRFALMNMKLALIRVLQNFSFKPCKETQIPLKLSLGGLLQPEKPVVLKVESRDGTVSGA

[7] = Microsomal stability in rat liver microsomes assessed as intrinsic clearance; type: ADME, Microsome; details: read-out: CLH
[8] = Permeability of compound across apical to basolateral side in human Caco2 cells; type: ADME, cell-based; details: Caco-2, read-out: permeability
Cytochrome P450 3A4 [9] = biological target: T2, Cytochrome P450 3A4; test: Inhibition of CYP3A4 (unknown origin) using testosterone as substrate; type: ADME
[10] = Microsomal stability in human liver microsomes assessed as intrinsic clearance; type: ADME, Microsome; details: read-out: CLH
[11] = biological target: T1, Endoplasmic reticulum aminopeptidase 1; details: dose 10.0 µM, time 30.0 min
[12] = Microsomal stability in mouse liver microsomes assessed as intrinsic clearance; type: ADME, Microsome; details: read-out: CLH
[13] = Stability in human hepatocytes assessed as intrinsic clearance; type: ADME, cell-based, Hepatocyte
[14] = substrate: CC(C)C[C@H](N)C(=O)Nc1ccc2c(c1)Oc1cc(NC(=O)[C@H](N)CCC(N)=O)ccc1C21OC(=O)c2ccccc21; details: Homo sapiens
[15] = substrate: CC(C)C[C@H](N)C(=O)Nc1ccc2c(c1)Oc1cc(NC(=O)[C@@H](CCC(N)=O)N[C@@H](C)C(=O)N[C@@H](Cc3ccccc3)C(=O)N[C@@H](CCCCN)C(=O)N[C@@H](C)C(=O)N[C@@H](CCCNC(=N)N)C(=O)N[C@@H](CCCCN)C(=O)N[C@@H](Cc3ccccc3)C(=O)O)ccc1C21OC(=O)c2ccccc21; details: Homo sapiens
[16] = substrate: CC(C)C[C@H](N)C(=O)Nc1ccc2c(c1)Oc1cc(NC(=O)[C@@H](CCC(N)=O)N[C@@H](Cc3ccccc3)C(=O)N[C@@H](CCCCN)C(=O)N[C@@H](C)C(=O)N[C@@H](CCCNC(=N)N)C(=O)N[C@@H](CCCCN)C(=O)N[C@@H](Cc3ccccc3)C(=O)O)ccc1C21OC(=O)c2ccccc21; details: Homo sapiens
[17] = substrate: CC(C)C[C@H](N)C(=O)Nc1ccc2c(c1)Oc1cc(NC(=O)[C@@H](CCC(N)=O)N[C@@H](CCCCN)C(=O)N[C@@H](C)C(=O)N[C@@H](CCCNC(=N)N)C(=O)N[C@@H](CCCCN)C(=O)N[C@@H](Cc3ccccc3)C(=O)O)ccc1C21OC(=O)c2ccccc21; details: Homo sapiens
Description: Inhibition of ERAP1 (unknown origin) using L-Rho-Succ-KARKF as substrate

Sequence of Aminopeptidase N (P15144 whole entry): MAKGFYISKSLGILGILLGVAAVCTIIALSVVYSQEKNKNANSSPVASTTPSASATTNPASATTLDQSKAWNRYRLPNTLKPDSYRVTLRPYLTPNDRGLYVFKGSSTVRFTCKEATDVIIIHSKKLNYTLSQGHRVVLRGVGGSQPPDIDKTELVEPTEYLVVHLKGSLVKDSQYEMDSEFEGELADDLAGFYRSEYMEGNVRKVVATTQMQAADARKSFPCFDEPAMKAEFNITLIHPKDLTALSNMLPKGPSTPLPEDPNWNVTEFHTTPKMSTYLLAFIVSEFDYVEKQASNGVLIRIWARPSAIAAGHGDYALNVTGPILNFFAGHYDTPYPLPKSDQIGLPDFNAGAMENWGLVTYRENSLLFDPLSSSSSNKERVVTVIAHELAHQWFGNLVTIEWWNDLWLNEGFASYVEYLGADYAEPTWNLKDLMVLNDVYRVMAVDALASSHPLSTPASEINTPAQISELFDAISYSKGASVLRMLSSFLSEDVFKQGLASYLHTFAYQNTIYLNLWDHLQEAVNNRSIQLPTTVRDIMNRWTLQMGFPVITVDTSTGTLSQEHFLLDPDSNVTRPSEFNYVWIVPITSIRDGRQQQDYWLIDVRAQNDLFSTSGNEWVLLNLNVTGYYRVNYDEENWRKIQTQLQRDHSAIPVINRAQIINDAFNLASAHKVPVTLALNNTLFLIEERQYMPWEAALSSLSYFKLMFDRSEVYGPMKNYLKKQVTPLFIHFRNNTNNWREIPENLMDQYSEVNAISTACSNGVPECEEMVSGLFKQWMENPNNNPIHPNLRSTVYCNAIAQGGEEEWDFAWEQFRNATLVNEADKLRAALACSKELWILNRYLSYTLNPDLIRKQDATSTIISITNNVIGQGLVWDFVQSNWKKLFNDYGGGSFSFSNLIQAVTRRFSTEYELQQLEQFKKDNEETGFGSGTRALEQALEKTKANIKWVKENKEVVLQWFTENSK

Molecule | IC50 [1] [nM] | IC50 (Aminopeptidase N) [µM] | IC50 [2] [µM] | also measured
CC(C)C[C@H](N)C(=O)Nc1ccc2c(c1)Oc1cc(NC(=O)[C@H](N)CCC(N)=O)ccc1C21OC(=O)c2ccccc21 (some centres not stated) | – | – | – | Ki [3]: 335 µM
CC(C)C[C@H](N)C(=O)Nc1ccc2c(c1)Oc1cc(NC(=O)[C@@H](CCC(N)=O)N[C@@H](Cc3ccccc3)C(=O)N[C@@H](CCCCN)C(=O)N[C@@H](C)C(=O)N[C@@H](CCCNC(=N)N)C(=O)N[C@@H](CCCCN)C(=O)N[C@@H](Cc3ccccc3)C(=O)O)ccc1C21OC(=O)c2ccccc21 (some centres not stated) | – | – | – | Ki [4]: 151 µM
CC(C)C[C@H](N)C(=O)Nc1ccc2c(c1)Oc1cc(NC(=O)[C@@H](CCC(N)=O)N[C@@H](C)C(=O)N[C@@H](Cc3ccccc3)C(=O)N[C@@H](CCCCN)C(=O)N[C@@H](C)C(=O)N[C@@H](CCCNC(=N)N)C(=O)N[C@@H](CCCCN)C(=O)N[C@@H](Cc3ccccc3)C(=O)O)ccc1C21OC(=O)c2ccccc21 (some centres not stated) | – | – | – | Ki [5]: 563 µM
CCC(C)(NC(=O)c1cc(F)cc2cc(-c3ccc(C(F)(F)F)cc3)oc12)C(=O)O (configuration not stated) | 2680 | – | – | –
COC(=O)C(C)(C)NC(=O)c1cc(F)cc2cc(-c3ccc(Cl)cc3)oc12 | > 10000 | – | – | –
CC(C)(NC(=O)c1cc(F)cc2cc(-c3ccc(Cl)cc3)oc12)C(N)=O | > 10000 | – | – | –
C[C@H](NC(=O)c1cc(F)cc2cc(-c3ccc(Cl)cc3)oc12)C(=O)O | 4440 | – | – | –
CN(C(=O)c1cc(F)cc2cc(-c3ccc(Cl)cc3)oc12)C(C)(C)C(=O)O | 1970 | – | – | –
Endoplasmic reticulum aminopeptidase 1 (Homo sapiens), Q9NZ08 (protein) MVFLPLKWSLATMSFLLSSLLALLTVSTPSWCQSTEASPKRSDGTPFPWNKIRLPEYVIPVHYDLLIHANLTTLTFWGTTKVEITASQPTSTIILHSHHLQISRATLRKGAGERLSEEPLQVLEHPRQEQIALLAPEPLLVGLPYTVVIHYAGNLSETFHGFYKSTYRTKEGELRILASTQFEPTAARMAFPCFDEPAFKASFSIKIRREPRHLAISNMPLVKSVTVAEGLIEDHFDVTVKMSTYLVAFIISDFESVSKITKSGVKVSVYAVPDKINQADYALDAAVTLLEFYEDYFSIPYPLPKQDLAAIPDFQSGAMENWGLTTYRESALLFDAEKSSASSKLGITMTVAHELAHQWFGNLVTMEWWNDLWLNEGFAKFMEFVSVSVTHPELKVGDYFFGKCFDAMEVDALNSSHPVSTPVENPAQIREMFDDVSYDKGACILNMLREYLSADAFKSGIVQYLQKHSYKNTKNEDLWDSMASICPTDGVKGMDGFCSRSQHSSSSSHWHQEGVDVKTMMNTWTLQKGFPLITITVRGRNVHMKQEHYMKGSDGAPDTGYLWHVPLTFITSKSDMVHRFLLKTKTDVLILPEEVEWIKFNVGMNGYYIVHYEDDGWDSLTGLLKGTHTAVSSNDRASLINNAFQLVSIGKLSIEKALDLSLYLKHETEIMPVFQGLNELIPMYKLMEKRDMNEVETQFKAFLIRLLRDLIDKQTWTDEGSVSERMLRSQLLLLACVHNYQPCVQRAEGYFRKWKESNGNLSLPVDVTLAVFAVGAQSTEGWDFLYSKYQFSLSSTEKSQIEFALCRTQNKEKLQWLLDESFKGDKIKTQEFPQILTLIGRNPVGYPLAWQFLRKNWNKLVQKFELGSSSIAHMVMGTTNQFSTRTRLEEVKGFFSSLKENGSQLRCVQQTIETIEENIGWMDKNFDKIRVWLQSEKLERM | – | – | – | Km [14]: 31.8 µM; Km [15]: 2 µM; Km [16]: 3.1 µM; Km [17]: 3.7 µM

Continued by falling IC50 [1], values first:

IC50 [1] [nM] | IC50 (Aminopeptidase N) [µM] | IC50 [2] [µM] | Molecule | also measured
1760 | > 30 | > 30 | CC(C)(NC(=O)c1cccc2c(Br)c(-c3ccc(Cl)cc3)oc12)C(=O)O | –
1760 | > 30 | > 30 | O=C(N[C@@H](Cc1ccccc1)C(=O)O)c1cc(F)cc2cc(-c3ccc(Cl)cc3)oc12 | –
1620 | – | – | O=C(NC1(C(=O)O)CCC1)c1cc(F)cc2cc(-c3ccc(C(F)(F)F)cc3)oc12 | Papp A→B [8]: 18.4 ×10⁻⁶ cm/s; ΔTm [11]: 0.5 °C
1120 | > 30 | > 30 | O=C(NC1(C(=O)O)CC1)c1cc(F)cc2cc(-c3ccc(Cl)cc3)oc12 | –
1030 | > 30 | > 30 | CC(C)(NC(=O)c1cccc2cc(-c3ccc(Cl)cc3)oc12)C(=O)O | –
698 | > 30 | > 30 | CC(C)(NC(=O)c1cc(F)cc2cc(-c3ccc(Cl)cc3)oc12)C(=O)O | IC50 (Cytochrome P450 3A4 [6]): > 30 µM; microsomal CLint [7]: 25 µL/min/mg; Papp A→B [8]: 10.8 ×10⁻⁶ cm/s; IC50 (Cytochrome P450 3A4 [9]): > 30 µM; microsomal CLint [10]: 33 µL/min/mg; ΔTm [11]: 0.94 °C; microsomal CLint [12]: < 20 µL/min/mg
377 | > 30 | > 30 | CCC(C)(NC(=O)c1cc(F)cc2cc(-c3ccc(Cl)cc3)oc12)C(=O)O (configuration not stated) | IC50 (Cytochrome P450 3A4 [6]): > 30 µM; microsomal CLint [7]: < 20 µL/min/mg; Papp A→B [8]: 8.5 ×10⁻⁶ cm/s; IC50 (Cytochrome P450 3A4 [9]): > 30 µM; microsomal CLint [10]: 32 µL/min/mg; ΔTm [11]: 0.82 °C; CLH [13]: 0.25 mL/h/10^6 cells; microsomal CLint [12]: 31 µL/min/mg
275 | – | – | CC(C)(NC(=O)c1cc(F)cc2cc(-c3ccc(Cl)cc3)oc12)c1nnn[nH]1 | –
262 | > 30 | > 30 | O=C(N[C@H](Cc1ccccc1)C(=O)O)c1cc(F)cc2cc(-c3ccc(Cl)cc3)oc12 | –
151 | > 30 | > 30 | O=C(NC1(C(=O)O)CCCCC1)c1cccc2c(Br)c(-c3ccc(Cl)cc3)oc12 | –
120 | > 30 | > 30 | O=C(NC1(C(=O)O)CCCCC1)c1cccc2cc(-c3ccc(Cl)cc3)oc12 | –
115 | > 30 | > 30 | O=C(NC1(C(=O)O)Cc2ccccc2C1)c1cc(F)cc2cc(-c3ccc(Cl)cc3)oc12 | –
99 | > 30 | > 30 | O=C(NC1(C(=O)O)CCCC1)c1cc(F)cc2cc(-c3ccc(Cl)cc3)oc12 | –
34 | > 30 | > 30 | O=C(NC1(C(=O)O)CCCCC1)c1cc(F)cc2cc(-c3ccc(Cl)cc3)oc12 | –
